From US20240341301A1 (The Regents of the University of Michigan, priority 2023, published 2024)

Columns and labels:
[1] = tested on: murine hearts; test: Mass spectrometry metabolomics of preserved or transplanted murine hearts; set-up: species or system mouse
Procedure: (§1) Male and female WT or Irg1^−/− mice (Jackson laboratories, Bar Harbor, ME) were anesthetized intraperitoneally with 80 mg/kg ketamine and 5 mg/kg xylazine, anticoagulated with heparin (2,000 U/kg iv), and the heart was rapidly exposed through a sternal incision. The aorta was cannulated and retrograde perfused in-situ with HTK solution±HDAC inhibitors. After cannulation, the heart dissected free, the left atrium was opened. For 4-OI (Cayman Chemical, 25374) experiments, donor mice were treated 4-OI (dissolved in 40% β-Cyclodextrin, 50 mg/kg intraperitoneally) or vehicle control (40% β-Cyclodextrin intraperitoneally) 2 hours prior to donor heart procurement. After dissection, the heart was stored at 4° C. with HTK or HTK with VPA for a pre-designated duration. The hearts were then mounted on a Radnoti mouse Langendorff apparatus (ADInstruments inc., Colorado Springs, CO) in constant-pressure mode (˜70 mmHg) with a modified Krebs-Henseleit buffer (KHB; in mM: 118 NaCl, 4.7 KCl, 1.25 CaCl2), 1.66 MgSO4, 24.88 NaHCO3, 1.18 KH2PO4, 5.55 glucose, and 2.0 Na-pyruvate). A balloon was placed in the LV through the left atrium and left ventricular diastolic pressure was set to ˜8 mmHg at initiation. The heart was perfused with modified Krebs-Henseleit buffer for 30 min to stabilize and then hemodynamics measurements were recorded. Myocardial temperature was maintained at 37° C. LabChart software (ADInstruments inc., Colorado Springs, CO) was used to record ventricular function, perfusion pressures, cardiac chamber temperature and myocardial temperature. After perfusing the heart for 60 minutes, the heart was removed from the ex-vivo perfusion apparatus for specimen collection. Tissue was immediately placed in liquid N2 or treated with 4% formalin.
Cardiac grafts procured from WT C57Bl/6J mice following arrest with cold (4° C.) HTK±VPA were transplanted into the right neck of sex-matched syngeneic C57BL/6J recipient mice following 16 hours of cold (4° C.) preservation in corresponding HTK±VPA solution as previously described (59). A cuff technique was used to connect the recipient right common carotid artery and right external jugular vein to the donor ascending aorta and pulmonary artery, respectively. Following reperfusion in the recipient, successful grafts were expected to resume a regular heartbeat. At 24 hours after reperfusion, the surgical incision was reopened and a small conductance catheter was introduced into the LV to measure contractility and relaxation.
Metabolomics measurements were performed by the Michigan Regional Comprehensive Metabolomics Resource Core (Ann Arbor, MI, USA).

[2] = tested on: Irg1; test: Irg1 mRNA transcript expression in preserved murine donor hearts; set-up: species or system mouse; conditions: 16 hours preservation without reperfusion and during ex vivo perfusion
Procedure: as §1

[3] = tested on: pig hearts; test: Porcine ex-vivo heart perfusion after cold preservation
Procedure: Heart procurement for both human and pigs were performed as follows. A sternotomy is performed under general anesthesia. The pericardium is then opened to create a pericardial cradle for the heart. Heparin (300U/kg) administered through the right atrium or in a peripheral vein. After waiting 3 minute for adequate anticoagulation from heparin, a 9 Fr antegrade plegia infusion catheter is placed in the ascending aorta. Approximately 1 liter of autologous donor arterial blood is then collected into a collection bottle containing heparin. […] Subsequently, the ascending aorta is cross-clamped distal to the cardioplegia catheter and 1 liter of cold (4° C.) HTK solution is infused into the coronaries at a perfusion pressure of ˜80 mmHg to induce mechanical arrest. After excising the heart completely, it is transported to the back-table for infusion of 2 liters of HTK±VPA solution. After completion, the heart is stored in a solution identical to the perfusate at 4° C. on ice.
Pig hearts underwent ex-vivo perfusion after preservation for 4 or 10 hours. Approval for human heart procurement was obtained from the University of Michigan Institutional Review Board (HUM00131275). Human donor hearts from deceased brain death donors were procured as per standard clinical protocols from the Gift of Life Michigan (GOLM) organ procurement facility. Myocardial biopsies (˜5 mm^3) of LV were biopsied immediately after cardioplegic arrest (0 h) and after 8 hours (8 h) of cold storage in a cooler containing ice. […] Causes of death were stroke (n=4), trauma (n=2), drug overdose (n=1), and cardiac arrest (n=1). Heart tissue were either fixed in formalin or snap frozen in liquid N2 for later analysis.
For ex-vivo pig heart perfusion (FIG. 15), the ascending aorta is connected to the arterial perfusion cannula and the left atrium is closed by suturing shut the pulmonary veins. A pressure monitoring catheter and left atrial infusion catheter were then placed into the left atrial cavity and secured. The Miller conductance catheter was introduced into the left ventricular cavity for measurement of ventricular performance parameters. The Radnoti constant perfusion pressure apparatus (ADInstruments Inc., Colorado Springs, CO) was utilized for ex-vivo large animal heart perfusion. Approximately 1 liter of previously collected autologous blood was added to ˜3.5 liters of Krebs buffer and this was initially infused at 24° C. with gradual warming to 37° C. After air was removed from the perfusion system, the ascending aorta and coronaries were retrograde perfused through the arterial cannula at physiological pressure ˜80 mmHg, leading to cardiac reanimation. The perfusion pressure was kept constant at ˜80 mmHg so LV contraction would need to overcome this afterload for cardiac output. Shockable arrhythmias such as ventricular tachycardia, ventricular fibrillation, supraventricular tachycardia were electrically cardioverted to sinus rhythm by delivery of 10 or 20 joules of energy. Cardiac performance was assessed in “resting” and “working” modes (60, 61). The left atrial pressure in resting mode was typically 0-1 mmHg. To assess cardiac hemodynamics in “working mode”, perfusate was infused into the left atrium at 4-10 mmHg at the 4-hour time point for LV loading and cardiac output assessment. Because cardiac performance was highly impaired as expected at the 10-hour time point, the left atrium was loaded to a pressure of up to 15 mmHg to assess cardiac output. At 1 hour intervals, both arterial perfusate and coronary sinus blood were collected for monitoring and analysis. Oxygen pressure was kept at about pO2 150-200 mmHg while pCO2 was kept at about 35-40 mmHg. Arterial pH was maintained at 7.35-7.40 by buffering with 5% CO2 during gas exchange. The heart was perfused ex vivo for 3 hours and then arrested with 4° C. HTK solution for specimen collection in formalin or snap frozen with liquid N2. The heart was weighed at the time of procurement and at the end of perfusion. […]

[4] = cold static preservation as well as transplantation
[5] = following murine heart transplantation
[6] = mice hearts during cardiac preservation
[7] = ex vivo perfused hearts compared to HTK alone

## CCCC(CCC)C(=O)O [VPA, 2-Propyl-pentanoic acid]
[1]; [4]
  itaconate: increased
  succinate: decreased
[1]; [5]
  fumarate: increased
  glutamate: decreased
  malate: increased
[1]; [6]
  fumarate concentration in VPA-treated group: 29.0±7.5 pmol/mg tissue
  itaconate concentration in VPA-treated group: 8.8±0.8 pmol/mg tissue
[1]; murine hearts during cold preservation
  acetyl-CoA, citrate, α-ketoglutarate, fumarate, or malate abundance: no changes
[2]
  Irg1 transcript expression: increased
[3]
  TnI in arterial perfusate: reduced
  cleaved caspase 3 expression: decreased
  heart weight: no difference
  oxygen consumption: higher
  total Nrf2 protein in cardiac tissue: increased
[3]; 4 and 10 hours of preservation
  NRF2 nuclear translocation: induced
[3]; 4 h and 10 h preservation
  donor heart contractility in working mode: improved
  donor heart relaxation in working mode: improved
[3]; 10 h preservation
  oxidative DNA damage via 8-OHdG staining: greatly reduced
[3]; after 4 h preservation
  improvement of cardiac output (CO) compared with HTK alone: about 25%
[3]; after 10 h of preservation
  aortic pulse pressure magnitude (systolic minus diastolic pressure): greater
  improvement of cardiac output (CO) compared with HTK alone: 100%
  systolic pressure in the left ventricular cavity: higher
[3]; after 10 hours of preservation
  perfusate concentration of IL-1β: reduced
  perfusate concentration of IL-2: reduced
  perfusate concentration of IL-6: reduced
  perfusate concentration of TNF-α: reduced
[3]; after 10 h preservation
  expression of pro-survival protein BCL2: increased
[3]; [7]
  expression of IRG1 transcript: increased
  mRNA abundance of IL1B: decreased
  mRNA abundance of IL6: decreased
  mRNA abundance of TNFA: decreased
[3]; pig hearts preserved for 10 h
  oxygen consumption compared to HTK alone: greater
